# ChEMBL document CHEMBL3045777, “Response of selected horseweed (Conyza canadensis (L.) Cronq.) populations to glyphosate” (2004)
# Experiments:
# Erigeron canadensis [1] = assay: Herbicidal activity against compound-resistant Conyza canadensis (horseweed) isolate 2 under greenhouse condition assessed as fresh weight at 1.25 kg ae/ha measured 21 days post treatment relative to untreated control
# Erigeron canadensis [2] = assay: Herbicidal activity against compound-resistant Conyza canadensis (horseweed) isolate 2 under greenhouse condition at 3.36 kg ae/ha measured 14 days post treatment relative to control; type: functional
# Erigeron canadensis [3] = assay: Herbicidal activity against compound-sensitive Conyza canadensis (horseweed) under greenhouse condition at 0.84 kg ae/ha measured 7 days post treatment relative to control; type: functional
# Erigeron canadensis [4] = assay: Herbicidal activity against compound-resistant Conyza canadensis (horseweed) isolate 2 under greenhouse condition at 3.36 kg ae/ha measured 7 days post treatment relative to control; type: functional
# Erigeron canadensis [5] = assay: Herbicidal activity against compound-resistant Conyza canadensis (horseweed) isolate 1 under greenhouse condition at 0.84 kg ae/ha measured 7 days post treatment relative to control; type: functional
# Erigeron canadensis [6] = assay: Herbicidal activity against compound-resistant Conyza canadensis (horseweed) isolate 2 under greenhouse condition assessed as fresh weight at 2.52 kg ae/ha measured 21 days post treatment relative to untreated control
# Erigeron canadensis [7] = assay: Herbicidal activity against compound-resistant Conyza canadensis (horseweed) isolate 2 under greenhouse condition at 2.52 kg ae/ha measured 21 days post treatment relative to control; type: functional
# Erigeron canadensis [8] = assay: Herbicidal activity against compound-resistant Conyza canadensis (horseweed) isolate 1 under greenhouse condition at 9 kg ae/ha measured 7 days post treatment relative to control; type: functional
# Erigeron canadensis [9] = assay: Herbicidal activity against compound-resistant Conyza canadensis (horseweed) isolate 2 under greenhouse condition at 3.36 kg ae/ha measured 21 days post treatment relative to control; type: functional
# Erigeron canadensis [10] = assay: Herbicidal activity against compound-sensitive Conyza canadensis (horseweed) under greenhouse condition assessed as fresh weight at 2.52 kg ae/ha measured 21 days post treatment relative to untreated control
# Erigeron canadensis [11] = assay: Herbicidal activity against compound-sensitive Conyza canadensis (horseweed) under greenhouse condition at 1.25 kg ae/ha measured 14 days post treatment relative to control; type: functional
# Erigeron canadensis [12] = assay: Herbicidal activity against compound-resistant Conyza canadensis (horseweed) isolate 2 under greenhouse condition at 0.84 kg ae/ha measured 14 days post treatment relative to control; type: functional
# Erigeron canadensis [13] = assay: Herbicidal activity against compound-resistant Conyza canadensis (horseweed) isolate 2 under greenhouse condition at 0.45 kg ae/ha measured 7 days post treatment relative to control; type: functional
# Erigeron canadensis [14] = assay: Herbicidal activity against Conyza canadensis (horseweed) under greenhouse condition assessed as decrease in fresh weight at 0.05 kg ae/ha measured 21 days post treatment relative to untreated control; type: functional
# Erigeron canadensis [15] = assay: Herbicidal activity against compound-sensitive Conyza canadensis (horseweed) under greenhouse condition assessed as fresh weight at 3.36 kg ae/ha measured 21 days post treatment relative to untreated control
compound,measurement,setting,value
O=C(O)CNCP(=O)(O)O [GLYPHOSATE],"level, % of control",Erigeron canadensis [1],73%
same,Activity,Erigeron canadensis [2],69%
same,Activity,Erigeron canadensis [3],58%
same,Activity,Erigeron canadensis [4],60%
same,Activity,Erigeron canadensis [5],20%
same,"level, % of control",Erigeron canadensis [6],24%
same,Activity,Erigeron canadensis [7],63%
same,Activity,Erigeron canadensis [8],80%
same,Activity,Erigeron canadensis [9],75%
same,"level, % of control",Erigeron canadensis [10],2%
same,Activity,Erigeron canadensis [11],92%
same,Activity,Erigeron canadensis [12],14%
same,Activity,Erigeron canadensis [13],13%
same,Activity,Erigeron canadensis [14],4 g
same,"level, % of control",Erigeron canadensis [15],6%
